Legend:
[1] = target: T1, ycbD product (aldehyde dehydrogenase) (Bacillus subtilis, UniProt P42236); test: Dehydrogenase activity of cell extracts, absorbance at 340 nm; assay type: biochemical; settings: 200 mM substrate, 0.05 mL cell extract (0.25 mg protein); for Relative Activity NAD: 1 mM NAD; for Relative Activity NADP: 1 mM NADP
T1 construct: made in house; host or cells: E. coli BLR(DE3), [ycbD+ycbE]-pET30a, desalted cell extract
Protocol: The dehydrogenase activity of the cell extracts was followed using acetaldehyde, glucuronic acid, and glucurono-3,6-lactone as substrates in 96-well plates. Each assay mixture contained 100 mM potassium phosphate, pH 7.8, 1 mM NADP or NAD, 200 mM substrate, and between 0.02 and 0.1 mL cell extract (0.1 to 0.5 mg protein). The reactions were started by adding the enzyme and were incubated at 30° C. in the spectrophotometer. The dehydrogenase activity was followed by monitoring the linear change in absorbance at 340 nm over a 10 minute time period (referenced to a reaction mixture without substrate).

[2] = test system: beta-glucuronidase; settings: cited from earlier work
[3] = test system: serum cholesterol; settings: mammals; cited from earlier work
[4] = target: T2, myo-inositol oxygenase (MIO) (Homo sapiens, UniProt Q9UGB7); test: MIO-orcinol assay of recombinant human MIO; assay type: biochemical
T2 construct: made in house; host or cells: Hi5 / Sf-9 insect cells (baculovirus, pFastBacHTa); also E. coli DH10B (pTRC99A) and S. cerevisiae INVSc1 (pYES2)
T2 sequence (Q9UGB7 with tags, fused parts or gaps): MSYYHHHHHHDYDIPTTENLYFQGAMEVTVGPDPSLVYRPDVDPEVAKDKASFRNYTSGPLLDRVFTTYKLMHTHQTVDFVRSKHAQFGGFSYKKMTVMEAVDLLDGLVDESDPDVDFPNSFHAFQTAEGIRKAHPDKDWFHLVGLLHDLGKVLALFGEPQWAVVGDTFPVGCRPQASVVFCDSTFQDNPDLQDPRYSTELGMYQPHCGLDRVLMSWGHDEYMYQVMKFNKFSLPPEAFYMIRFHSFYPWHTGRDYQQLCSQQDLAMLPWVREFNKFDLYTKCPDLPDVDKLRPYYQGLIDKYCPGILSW
Protocol: MIO activity was determined using a modification of the method described by Reddy et al. (J. Biol. Chem., 256, 8510 (1981)). Briefly, this assay is based on the reaction of orcinol (5-methyl-1,3-benzenediol) with the MIO enzyme reaction product, D-glucuronic acid. The standard assay mixture contained 50 mM Tris-HCl (pH 8.0), 2.0 mM cysteine, 1.0 mM ferrous ammonium sulfate, 60 mM myo-inositol, and appropriate quantities of enzyme in a total volume of 0.50 mL. The stock L-cysteine solution (0.10 M) was prepared every two weeks, and the stock ferrous ammonium sulfate solution (0.50 M) was prepared fresh daily. The enzyme solutions consisted of cell extracts prepared as described or chromatography fractions generated during the partial purification of the enzyme. Prior to initiating the reaction by addition of the substrate myo-inositol (stock solution of 0.50 M, dissolved in 50 mM TEGG), all other reagents were mixed together by vortexing and incubated for 5 minutes at 30° C. The substrate was then added to initiate the assay. After vortex-mixing the components, the reaction was carried out in an air atmosphere at 30° C. with shaking at 200 rpm for 10 minutes. The reaction was terminated by the addition of 75 μL of 20% trichloroacetic acid. After vortexing, the assay mixture was transferred to a 1.5 mL polypropylene microcentrifuge tube, and the precipitated polypeptide was separated by centrifugation at 21,000×g for 3 minutes at 25° C. The supernatant was transferred to a new 1.5 mL polypropylene microcentrifuge tube, and the D-glucuronic acid concentration was determined by the orcinol colorimetric assay.
The orcinol colorimetric determination assay was performed as follows. Freshly prepared orcinol reagent (0.6 mL; 0.4% (w/v) orcinol, 0.09% (w/v) ferric trichloride hexahydrate in concentrated HCl) was added to 0.3 mL of the clear supernatant. The mixture was vortex-mixed and then incubated in a boiling water bath for 30 minutes. After cooling to 25° C., the mixture was cleared by centrifugation at 21,000×g for 3 minutes. The supernatant was transferred to a disposable cuvette, and the absorbance was measured at 660 nm. A standard curve was generated by replacing the enzyme fraction with D-glucuronic acid (0 to 40 μg/mL) and carrying out the assay as described above. […]
All reactions were run in duplicate, and all polypeptide fractions were assayed with and without added myo-inositol substrate (an equal volume of TEGG buffer with or without substrate was added to initiate the assay). The average of the absorbance readings of the assay mixtures carried out without substrate was subtracted from the average of readings of the assay mixtures containing substrate. […]

[5] = target: T3, glucuronate reductase (Rattus norvegicus, UniProt P51635, T2A); test: GLR assay, loss of absorbance at 340 nm (loss of NADPH); assay type: biochemical
T3 construct: His tag (pET30a fusion); made in house; host or cells: E. coli BLR(DE3), pET30a
T3 sequence (P51635 1-325 T2A): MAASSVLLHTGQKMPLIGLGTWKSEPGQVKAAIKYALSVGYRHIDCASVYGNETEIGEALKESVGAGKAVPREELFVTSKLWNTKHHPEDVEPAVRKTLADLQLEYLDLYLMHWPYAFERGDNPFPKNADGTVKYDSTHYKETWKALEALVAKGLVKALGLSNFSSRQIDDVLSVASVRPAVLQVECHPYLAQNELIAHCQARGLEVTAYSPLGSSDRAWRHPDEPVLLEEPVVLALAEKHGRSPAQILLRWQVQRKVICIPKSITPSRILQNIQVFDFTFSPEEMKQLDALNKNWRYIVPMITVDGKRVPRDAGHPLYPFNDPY
Protocol: GLR was assayed by following the loss of absorbance at 340 nm (loss of NADPH) using 0.3 mM NADPH, 10 mM glucuronic acid, and variable amount of enzyme in 100 mM sodium phosphate, pH 6.6 (Hayashi et al., J. Biochem., 95:2223-2232 (1984)). 1-2 micromoles of NADPH were typically consumed per minute per mg protein.

T1 sequence (P42236 whole entry): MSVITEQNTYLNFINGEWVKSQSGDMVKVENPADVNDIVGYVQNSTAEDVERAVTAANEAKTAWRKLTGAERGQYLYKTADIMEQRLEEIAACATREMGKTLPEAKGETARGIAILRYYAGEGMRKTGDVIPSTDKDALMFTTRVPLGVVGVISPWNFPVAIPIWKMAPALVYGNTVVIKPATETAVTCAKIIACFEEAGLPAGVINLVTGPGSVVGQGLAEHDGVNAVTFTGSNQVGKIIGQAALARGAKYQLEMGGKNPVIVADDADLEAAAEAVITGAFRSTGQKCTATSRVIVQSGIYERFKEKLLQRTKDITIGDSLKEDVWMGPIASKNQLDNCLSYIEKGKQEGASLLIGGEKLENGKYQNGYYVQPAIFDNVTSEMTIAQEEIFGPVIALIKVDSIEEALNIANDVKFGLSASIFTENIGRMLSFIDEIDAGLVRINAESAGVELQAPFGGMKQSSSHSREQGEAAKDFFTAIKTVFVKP

## O=C[C@H](O)[C@@H](O)[C@H](O)[C@H](O)C(=O)O [D-glucuronate]
[1]
  Relative Activity NAD: 2.4 percentage of maximum activity
  Relative Activity NADP: 2.1 percentage of maximum activity

## O=C[C@H](O)[C@H]1OC(=O)[C@@H](O)[C@H]1O [D-glucurono-3,6-lactone]
[1]
  Relative Activity NAD: 2.1 percentage of maximum activity
  Relative Activity NADP: 50.6 percentage of maximum activity

## O=C(O)[C@@H](O)[C@@H](O)[C@H](O)[C@@H](O)C(=O)O [Glucaric acid]
[2]
  inhibition of beta-glucuronidase: potent inhibitor
[3]
  effect on serum cholesterol: lower serum cholesterol

## CC=O [acetaldehyde]
[1]
  Relative Activity NAD: 56.9 percentage of maximum activity
  Relative Activity NADP: 100.0 percentage of maximum activity

B1: human MIO polypeptide: Human myo-inositol oxygenase (ORF EMBL: CAB63064.1) expressed in E. coli or S. cerevisiae, assayed in cell extracts (protein, UniProt Q9UGB7 1-285, looked up)
Inositol oxygenase: MKVTVGPDPSLVYRPDVDPEVAKDKASFRNYTSGPLLDRVFTTYKLMHTHQTVDFVRSKHAQFGGFSYKKMTVMEAVDLLDGLVDESDPDVDFPNSFHAFQTAEGIRKAHPDKDWFHLVGLLHDLGKVLALFGEPQWAVVGDTFPVGCRPQASVVFCDSTFQDNPDLQDPRYSTELGMYQPHCGLDRVLMSWGHDEYMYQVMKFNKFSLPPEAFYMIRFHSFYPWHTGRDYQQLCSQQDLAMLPWVREFNKFDLYTKCPDLPDVDKLRPYYQGLIDKYCPGILSW
[4]; E. coli, pTRC99A, IPTG induced, desalted cell extract
  specific activity: 8.8 μg glucuronic acid formed per mg polypeptide in 10 minutes
[4]; S. cerevisiae INVSc1, pYES2, cell extract, 12 hours after induction
  specific activity: 13.4 μg glucuronic acid formed per mg polypeptide in 10 minutes

B2: purified polypeptide: His-tagged human MIO polypeptide, SEQ ID NO:12, expressed by baculovirus in insect cells (protein)
chain: MSYYHHHHHHDYDIPTTENLYFQGAMEVTVGPDPSLVYRPDVDPEVAKDKASFRNYTSGPLLDRVFTTYKLMHTHQTVDFVRSKHAQFGGFSYKKMTVMEAVDLLDGLVDESDPDVDFPNSFHAFQTAEGIRKAHPDKDWFHLVGLLHDLGKVLALFGEPQWAVVGDTFPVGCRPQASVVFCDSTFQDNPDLQDPRYSTELGMYQPHCGLDRVLMSWGHDEYMYQVMKFNKFSLPPEAFYMIRFHSFYPWHTGRDYQQLCSQQDLAMLPWVREFNKFDLYTKCPDLPDVDKLRPYYQGLIDKYCPGILSW
modifications: His tag; human polypeptide with non-human sequences
[4]; Hi5 insect cells, baculovirus expression, FIG. 8
  MIO activity: exhibited MIO activity
[4]; Nickel-NTA purified to homogeneity, from insect cells
  specific activity: 225 μg glucuronic acid formed per mg polypeptide during a 10 minute assay

B3: GLR: glucuronate reductase, rat glr expressed from pET30a in E. coli, His-Bind purified (protein, UniProt P51635 2-325, looked up)
Aldo-keto reductase family 1 …: TASSVLLHTGQKMPLIGLGTWKSEPGQVKAAIKYALSVGYRHIDCASVYGNETEIGEALKESVGAGKAVPREELFVTSKLWNTKHHPEDVEPAVRKTLADLQLEYLDLYLMHWPYAFERGDNPFPKNADGTVKYDSTHYKETWKALEALVAKGLVKALGLSNFSSRQIDDVLSVASVRPAVLQVECHPYLAQNELIAHCQARGLEVTAYSPLGSSDRAWRHPDEPVLLEEPVVLALAEKHGRSPAQILLRWQVQRKVICIPKSITPSRILQNIQVFDFTFSPEEMKQLDALNKNWRYIVPMITVDGKRVPRDAGHPLYPFNDPY
modifications: His tag
[5]; 0.3 mM NADPH, 10 mM glucuronic acid, pH 6.6
  NADPH consumed: 1-2 micromoles per minute per mg p
[5]; His-Bind purified from E. coli
  Specific Activity (purified protein): 1 to 3 µmol/min/mg
